These results are taken from the supplement of paper PMC10307832.

Assay in all cases: relative viability (nuclei count vs DMSO), 5 days (fraction); higher = more cells survive
Compound in the assay “Quizartinib + AZD7762”: CC(C)(C)c1cc(NC(=O)Nc2ccc(-c3cn4c(n3)sc3cc(OCCN5CCOCC5)ccc34)cc2)no1 [Quizartinib] + NC(=O)Nc1cc(-c2cccc(F)c2)sc1C(=O)N[C@H]1CCCNC1 [AZD7762] (partner 0.2 µM)
In outline: (§1)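 Lung cancer cell lines were seeded in 1536-well plates and dosed by pin tool the next day, with either a single drug or a fixed anchor-drug dose combined with five library-drug doses (not always all listed) spaced in √10 steps. Five days later, one step fixed the cells and stained their nuclei (final 0.05% Triton X-100, 1% formaldehyde, 1 ug/ml Hoechst), and nuclei were counted on 4× images. Relative viability is the nuclei count in treated wells divided by the count in vehicle wells, and each value is the median of duplicate plates.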

Compound in the assay “Quizartinib + Olaparib”: CC(C)(C)c1cc(NC(=O)Nc2ccc(-c3cn4c(n3)sc3cc(OCCN5CCOCC5)ccc34)cc2)no1 [Quizartinib] + O=C(c1cc(Cc2n[nH]c(=O)c3ccccc23)ccc1F)N1CCN(C(=O)C2CC2)CC1 [Olaparib] (partner 8 µM)
In outline: as §1

Compound in the assay “YM155 + Foretinib”: COCC[n+]1c2c(n(Cc3cnccn3)c1C)C(=O)c1ccccc1C2=O [YM155] + COc1cc2c(Oc3ccc(NC(=O)C4(C(=O)Nc5ccc(F)cc5)CC4)cc3F)ccnc2cc1OCCCN1CCOCC1 [Foretinib] (partner 0.25 µM)
In outline: as §1

Compound in the assay “YM155 + Crizotinib”: COCC[n+]1c2c(n(Cc3cnccn3)c1C)C(=O)c1ccccc1C2=O [YM155] + C[C@@H](Oc1cc(-c2cnn(C3CCNCC3)c2)cnc1N)c1c(Cl)ccc(F)c1Cl [Crizotinib] (partner 1 µM)
In outline:
as §1

As for NCI-H2347, the relative viability was 0.728 in the assay with Quizartinib + AZD7762 (first compound 0.001 µM); 0.696 in the assay with Quizartinib + AZD7762 (first compound 0.003162 µM); 0.799 with Quizartinib + AZD7762 (first compound 0.01 µM); 0.768 with Quizartinib + AZD7762 (first compound 0.03162 µM); 0.749 in the assay with Quizartinib + AZD7762 (first compound 0.1 µM); 0.458 with Quizartinib + Olaparib (first compound 0.001 µM). For the same cell line, the relative viability with Quizartinib + Olaparib (first compound 0.003162 µM) stood at 0.518; in the assay with Quizartinib + Olaparib (first compound 0.01 µM), 0.701; with Quizartinib + Olaparib (first compound 0.03162 µM) it was 0.57; with Quizartinib + Olaparib (first compound 0.1 µM) it was 0.608; with YM155 + Foretinib (first compound 0.002 µM), 0.767; in the assay with YM155 + Foretinib (first compound 0.006325 µM), 0.907. The relative viability amounted to 1.38 with YM155 + Foretinib (first compound 0.02 µM); 0.892 with YM155 + Foretinib (first compound 0.06325 µM); 0.683 with YM155 + Crizotinib (first compound 0.002 µM); 0.644 in the assay with YM155 + Crizotinib (first compound 0.006325 µM); 0.561 in the assay with YM155 + Crizotinib (first compound 0.02 µM); 0.633 in the assay with YM155 + Crizotinib (first compound 0.06325 µM).
For the cell line NCI-H2405, the relative viability is 0.919 with Quizartinib + AZD7762 (first compound 0.001 µM); 0.741 with Quizartinib + AZD7762 (first compound 0.003162 µM); 0.789 with Quizartinib + AZD7762 (first compound 0.01 µM); 0.745 with Quizartinib + AZD7762 (first compound 0.03162 µM); 0.797 in the assay with Quizartinib + AZD7762 (first compound 0.1 µM); 0.851 with Quizartinib + Olaparib (first compound 0.001 µM). The relative viability with Quizartinib + Olaparib (first compound 0.003162 µM) turned out to be 0.807; in the assay with Quizartinib + Olaparib (first compound 0.01 µM), 0.92; in the assay with Quizartinib + Olaparib (first compound 0.03162 µM) it was 0.832; in the assay with Quizartinib + Olaparib (first compound 0.1 µM), 0.902; with YM155 + Foretinib (first compound 0.002 µM), 1.04; in the assay with YM155 + Foretinib (first compound 0.006325 µM) it was 1.03. Moreover, the relative viability worked out at 0.936 in the assay with YM155 + Foretinib (first compound 0.02 µM); 0.64 with YM155 + Foretinib (first compound 0.06325 µM); 0.8 with YM155 + Crizotinib (first compound 0.002 µM); 0.82 in the assay with YM155 + Crizotinib (first compound 0.006325 µM); 0.831 in the assay with YM155 + Crizotinib (first compound 0.02 µM); 0.644 in the assay with YM155 + Crizotinib (first compound 0.06325 µM).
As for NCI-H3122, the relative viability with Quizartinib + AZD7762 (first compound 0.001 µM) was 0.964; in the assay with Quizartinib + AZD7762 (first compound 0.003162 µM) it was 1.02; with Quizartinib + AZD7762 (first compound 0.01 µM) it was 0.971; with Quizartinib + AZD7762 (first compound 0.03162 µM), 1.02; in the assay with Quizartinib + AZD7762 (first compound 0.1 µM), 0.962; with Quizartinib + Olaparib (first compound 0.001 µM), 0.573. Besides, the relative viability worked out at 0.637 in the assay with Quizartinib + Olaparib (first compound 0.003162 µM); 0.653 with Quizartinib + Olaparib (first compound 0.01 µM); 0.69 in the assay with Quizartinib + Olaparib (first compound 0.03162 µM); 0.676 with Quizartinib + Olaparib (first compound 0.1 µM); 0.923 with YM155 + Foretinib (first compound 0.002 µM); 1 with YM155 + Foretinib (first compound 0.006325 µM). The relative viability with YM155 + Foretinib (first compound 0.02 µM) was determined as 0.927; in the assay with YM155 + Foretinib (first compound 0.06325 µM), 0.933; with YM155 + Crizotinib (first compound 0.002 µM) it was 0.269; with YM155 + Crizotinib (first compound 0.006325 µM), 0.239; with YM155 + Crizotinib (first compound 0.02 µM) it was 0.257; with YM155 + Crizotinib (first compound 0.06325 µM), 0.272.
PC-3 [JPC-3]: the relative viability was 0.545 in the assay with Quizartinib + AZD7762 (first compound 0.001 µM); 0.811 with Quizartinib + AZD7762 (first compound 0.003162 µM); 0.781 with Quizartinib + AZD7762 (first compound 0.01 µM); 0.75 with Quizartinib + AZD7762 (first compound 0.03162 µM); 0.766 in the assay with Quizartinib + AZD7762 (first compound 0.1 µM); 1.15 with Quizartinib + Olaparib (first compound 0.001 µM). For the same cell line, the relative viability with Quizartinib + Olaparib (first compound 0.003162 µM) is 1.1; with Quizartinib + Olaparib (first compound 0.01 µM), 1.21; in the assay with Quizartinib + Olaparib (first compound 0.03162 µM), 1.05; with Quizartinib + Olaparib (first compound 0.1 µM), 1.12; with YM155 + Foretinib (first compound 0.002 µM), 1.04; with YM155 + Foretinib (first compound 0.006325 µM), 1.08. For the same cell line, the relative viability with YM155 + Foretinib (first compound 0.02 µM) is 1.11; with YM155 + Foretinib (first compound 0.06325 µM), 1.02; with YM155 + Crizotinib (first compound 0.002 µM) it was 0.939; with YM155 + Crizotinib (first compound 0.006325 µM), 1.04; with YM155 + Crizotinib (first compound 0.02 µM), 1.06; in the assay with YM155 + Crizotinib (first compound 0.06325 µM), 1.1.
On to PC-14, for which the relative viability turned out to be 0.31 in the assay with Quizartinib + AZD7762 (first compound 0.001 µM); 0.417 with Quizartinib + AZD7762 (first compound 0.003162 µM); 0.327 with Quizartinib + AZD7762 (first compound 0.01 µM); 0.22 with Quizartinib + AZD7762 (first compound 0.03162 µM); 0.457 in the assay with Quizartinib + AZD7762 (first compound 0.1 µM); 0.263 in the assay with Quizartinib + Olaparib (first compound 0.001 µM). Further, the relative viability turned out to be 0.26 with Quizartinib + Olaparib (first compound 0.003162 µM); 0.252 with Quizartinib + Olaparib (first compound 0.01 µM); 0.184 in the assay with Quizartinib + Olaparib (first compound 0.03162 µM); 0.318 with Quizartinib + Olaparib (first compound 0.1 µM); 0.83 with YM155 + Foretinib (first compound 0.002 µM); 0.911 with YM155 + Foretinib (first compound 0.006325 µM). For the same cell line, the relative viability amounted to 0.908 in the assay with YM155 + Foretinib (first compound 0.02 µM); 1.02 with YM155 + Foretinib (first compound 0.06325 µM); 0.948 with YM155 + Crizotinib (first compound 0.002 µM); 0.931 with YM155 + Crizotinib (first compound 0.006325 µM); 1.04 in the assay with YM155 + Crizotinib (first compound 0.02 µM); 0.818 with YM155 + Crizotinib (first compound 0.06325 µM).
Regarding RERF-LC-KJ, the relative viability with Quizartinib + AZD7762 (first compound 0.001 µM) stood at 0.898; with Quizartinib + AZD7762 (first compound 0.003162 µM) it was 0.954; in the assay with Quizartinib + AZD7762 (first compound 0.01 µM) it was 0.945; with Quizartinib + AZD7762 (first compound 0.03162 µM) it was 0.98; with Quizartinib + AZD7762 (first compound 0.1 µM), 0.987; with Quizartinib + Olaparib (first compound 0.001 µM), 0.931. Besides, the relative viability in the assay with Quizartinib + Olaparib (first compound 0.003162 µM) was 0.807; in the assay with Quizartinib + Olaparib (first compound 0.01 µM), 0.938; with Quizartinib + Olaparib (first compound 0.03162 µM), 0.545; in the assay with Quizartinib + Olaparib (first compound 0.1 µM) it was 0.972; in the assay with YM155 + Foretinib (first compound 0.002 µM) it was 0.945; with YM155 + Foretinib (first compound 0.006325 µM) it was 0.837. Also, the relative viability with YM155 + Foretinib (first compound 0.02 µM) came to 0.909; with YM155 + Foretinib (first compound 0.06325 µM) it was 0.854; with YM155 + Crizotinib (first compound 0.002 µM) it was 0.775; in the assay with YM155 + Crizotinib (first compound 0.006325 µM), 0.761; with YM155 + Crizotinib (first compound 0.02 µM) it was 0.868; in the assay with YM155 + Crizotinib (first compound 0.06325 µM), 0.766.
